Test results as given in patent US7247734B2 (Vernalis (Cambridge) Limited, priority 2001, dated 2007).

Assays:
[1] = system: HT29 human colon tumour cells; assay: 96 h growth inhibition assay (SRB), HT29; format: cell-based; settings: Homo sapiens, HT-29; HT29, 96 h
Protocol: The growth inhibition assay employed was based on that described previously (Kelland et al., 1993). HCT116 and HT29 human colon tumour cells (American Tissue Culture Collection) were seeded into 96-well tissue culture plates (approximately 1600–2000 cells per well) and allowed to attach for 36 hours. Eight wells were treated with a single concentration from a range of compound concentrations and incubated for 96 hours. Cells were fixed using ice cold 10% trichloroacetic acid (TCA). Plates were then washed five times with water, air dried, and stained with 0.4% sulphorhodamine B (SRB) in 1% acetic acid for 10 minutes. The SRB stain was solubilised in 10 mM Tris-HCl and the absorbance measured at 540 nm using a Titertek Multiscan MCC/340 MKII plate reader (Flow Laboratories, IEC, Basingstoke, N.H.). The absorbance values correspond to total protein content and are used as a measure of cell growth.

HSP70 in HCT116 cells = assay: Cell-based ELISA for HSP70 expression; set-up: species or system human; settings: for % increase in HSP70 (Normalised Europium Counts compared to DMSO controls): HCT116, 10 μM compound
Text: Cell-based ELISA methods (see, e.g., Stockwell et al., 1999; Versteeg et al., 2000) offer several advantages for evaluating the pharmacodynamic effects of novel mechanism-based inhibitors and may be the method of choice for comparing inhibitors that are identified during the iterative process of lead identification and optimisation. The technique can be used to rapidly rank the effectiveness of compounds as well as to investigate the molecular mechanisms of their action. The increased sample throughput possible with ELISA means that compounds can be simultaneously studied in multiple replicates at different doses and exposure times. […] The assays are carried out directly on cells grown and treated in microtitre plates, thereby removing the necessity for preparing cell lysates. ELISA techniques can in theory be applied to any cellular protein or post-translational modification for which an antibody is available and results are at least semi-quantitative.
Chemicals are of the highest purity commercially available. • (1) Human colon tumour cell lines (e.g., HCT116 and HT29 from American Tissue Culture Collection, ATCC) grown in Dulbecco's modified Eagle's medium (DMEM) (CSSD, Institute of Cancer Research, London, UK) supplemented with […] glucose, 10% foetal bovine serum (FBS), 200 mM L-glutamine, and 5 ml non-essential amino acids in a humidified atmosphere of 5% CO2 at 37° C. • (2) 96 well Falcon clear microtitre tissue culture plates (BD Labware, Hospital Management and Supplies, Ltd., Northampton, UK). • (3) DMSO diluted in dH2O (8%). • (4) HSP90 inhibitors at required concentration dissolved in DMSO. • (5) Fixing solution (0.25% glutaraldehyde, 3% paraformaldehyde and 0.25% Triton-X 100) (all from Sigma Aldrich Ltd, Poole, UK). • (6) Blocking solution (5% dried milk (Marvel) in PBS) prepared daily. • (7) Anti HSP70 monoclonal antibody (SPA 810, Bioquote, York, UK). • (8) DELFIA® wash buffer, enhancement solution, assay buffer and Europium labelled anti-mouse IgG (1244–1330) (PerkinElmer Life Sciences, Milton Keynes, UK). • (9) BCA protein assay reagents (Perbio Science UK Ltd., Chester, UK). Method
Incubate at 37° for 30 min. • (6) Wash plates twice in PBS using an automated washer (Wellwash 5000 ten plate stacker-washer or Wellwash Ascent single plate washer, Thermo Labsystems, Basingstoke, UK). • (7) Block the plates by addition of blocking solution (100 μl) and incubate for 30 min. • (8) Add 100 μl primary antibody diluted to 0.95 μg/ml in PBS to each well and incubate plate for 1.5 h. Wash plates once with DELFIA® wash solution. • (9) Add 100 μl Europium labelled anti-mouse IgG diluted in DELFIA® assay buffer to 75 ng/ml and incubate for 1 hour. Wash plates once with DELFIA® wash solution as before. • (10) Add 100 μl DELFIA® enhancement solution to each well. • (11) Measure the fluorescence (615 nm) in Victor 2 1420 multilabel counter (Perkin Elmer Life Sciences, Milton Keynes, UK) using time-resolved measurement mode. • (12) Wash plates once with PBS and measure protein concentration by the addition of 200 μl BCA reagent to each well, shake for 1–2 min and incubate for 30 mins at 37° C. Read absorption at 570 nm. • (13) Express ELISA results by normalising to protein in the well (Eu counts (cpm) divided by OD@ 570 nm). Compare the effect of HSP90 inhibitors on HSP70 expression with DMSO treated controls. Comments • (1) Cells plated into 96 well plates are incubated in a plastic box to reduce evaporation from the outside wells. […]

Cc1[nH]nc(-c2ccc(O)cc2O)c1-c1ccc2c(c1)OCCO2 [CCT018157]
IC50 [1]: 14 µM | % increase in HSP70 (Normalised Europium Counts compared to DMSO controls) (HSP70 in HCT116 cells; (48 h)): 103% | % increase in HSP70 (Normalised Europium Counts compared to DMSO controls) (HSP70 in HCT116 cells; (time not given)): 105%

CCc1cc(-c2n[nH]c(C)c2-c2ccc3c(c2)OCCO3)c(O)cc1O [CCT018159, 4-[4-(2,3-Dihydro-benzo[1,4]dioxin-6-yl)-5-methyl-1H-pyrazol-3-yl]-6-ethyl-benzene-1,3-diol]
IC50 [1]: 13.5 µM | % increase in HSP70 (Normalised Europium Counts compared to DMSO controls) (HSP70 in HCT116 cells; (48 h)): 278% | % increase in HSP70 (Normalised Europium Counts compared to DMSO controls) (HSP70 in HCT116 cells; (time not given)): 158% | HSP70 induction (HSP70 in HCT116 cells; HCT116, 10 μM, 48 h): up to 2.8 fold
